Laboratory results reported in patent EP4309652A1, “COMPOSITION FOR USE IN THE PREVENTION AND/OR TREATMENT OF DISEASES MEDIATED BY TLR4, IL1R, COX1/2 AND/OR RBP4” (Servizo Galego de Saúde (SERGAS), priority 2022, dated 2024).
Entries after “also recorded” stand apart in the source; their conditions may differ.

Assays:
[1] = system: RBP4; assay: RBP4 mRNA expression in chondrocytes; type: cell-based; conditions: basal or inflammatory conditions (LPS or IL1β), 50 and 100 µM of PJ
Description: (§1) RNA was extracted using E.Z.N.A solation reagent (Omega) according to manufacturer's protocol. Relative quantitation was performed using the ΔΔC Comparative Method and the MxPro software (Stratagene, CA, USA) as the ratio of each gene to the expression of the housekeeping gene. Data are shown as mean ± S.E.M (error bars) of at least three independent experiments and represented as fold-change vs. controls.

[2] = system: ATDC5 cells; assay: Nitrite assay (Griess reaction), NO production; type: cell-based, murine; conditions: LPS (100 ng/ml) or IL1B (0,5 ng/ml), 24h
Description: ATDC-5 cells were seeded in 12-well plates. Cells were seeded in a monolayer. After adhesion and incubation overnight in serum-free conditions (starvation), ATDC5 cells were stimulated for 24 h with LPS [100 ng/ml] or IL-1β [0,5 ng/ml] in the presence or absence of the compounds of the invention [10-100 µM]. As described above, 1×10^5 ATDC5 cells were seeded and treated for 24 h. Nitrite accumulation was determined in the culture medium using the Griess reaction. As previously described, after diazonium salt was dissolved, absorbance was measured at 550 nm in a microplate reader.

[3] = system: TLR4; assay: Western blot, NOS2 protein expression in LPS-stimulated ATDC5 cells; type: cell-based, murine; conditions: LPS (100 ng/ml), 24h
Description: (§2) ATDC-5 cells were seeded in 12-well plates. Cells were seeded in a monolayer. After adhesion and incubation overnight in serum-free conditions (starvation), ATDC5 cells were stimulated for 24 h with LPS [100 ng/ml] or IL-1β [0,5 ng/ml] in the presence or absence of the compounds of the invention [10-100 µM].
(§3) Whole-cell protein extraction was performed using lysis buffer (RIPA Buffer). Immunoblots were incubated with the appropriated antibodies [INOS (rabbit polyclonal antibody) diluted 1:1000 (Thermo Fisher Scientific, MA, USA), IG (anti-rabbit antibody) diluted 1:5000 (Jackson ImmunoResearch Laboratories Inc., USA), b-actin (mouse polyclonal antibody) (Thermo Fisher Scientific, MA, USA) diluted 1:6500 and IG (anti-mouse antibody) diluted 1:10000] (Jackson ImmunoResearch Laboratories Inc., USA).
(§4) Then, all immunoblots were visualized using an Immobilon Western kit (Millipore, MA, USA). Blots densitometries were generated using a ChemiDoc MP Imaging System and analysed using Image J software (National Institutes of Health, Bethesda, MD, USA).

[4] = system: TLR4; assay: RT-PCR, LPS-induced mRNA expression of LCN2, IL6 and NOS2 in ATDC5 cells; type: cell-based, murine; conditions: LPS (100 ng/ml), 24h
Description: as §2, §1

[5] = system: primary human osteoarthritis chondrocytes and osteoblasts; assay: RT-PCR, inflammatory and catabolic marker genes in TLR4- and IL1R-activated primary cells; type: cell-based; conditions: 50 µM, 24h, LPS (100 ng/ml) or IL1β (0,5 ng/ml)
Description: as §1
According to the results obtained in ATDC5 cells, we selected the concentration 50 µM and co-treated the primary cells with inflammatory stimuli for 24h at the same concentrations [LPS (100 ng/ml), and IL1β (0,5 ng/ml)].

[6] = system: IL1R; assay: Western blot, NOS2 protein expression in IL1β-stimulated ATDC5 cells; type: cell-based, murine; conditions: IL1β (0,5 ng/ml), 24h
Description: as §2, §3, §4

[7] = system: IL1R; assay: RT-PCR, IL1β-induced mRNA expression of LCN2, IL6 and NOS2 in ATDC5 cells; type: cell-based, murine; conditions: IL1β (0,5 ng/ml), 24h
Description: as §2, §1

SMILES: CC(=O)OC(/C=C\C1OC(=O)C=CC1O)CC(OC(C)=O)C(C)OC(C)=O (stereo not drawn) [Pectinolide J]
- RBP4 mRNA expression [1]: downregulates
- NO production induced by LPS and IL1β [2]: maximum inhibitory activity
- concentration of maximum inhibitory activity on induced NO production [2]: 10 to 25 µM
- NOS2 protein expression (250 kDa dimer), LPS-induced [3]: highest reduction of NOS2 expression
- LPS-induced mRNA expression of LCN2, IL6 and NOS2 [4]: highest anti-inflammatory activity
- inflammatory and catabolic marker genes (LCN2, NOS2, IL6, MMP3) induced by the inflammatory stimuli [5]: maximum anti-inflammatory activity
- NOS2 protein expression (250 kDa dimer), IL1β-induced [6]: highest reduction of NOS2 expression
- IL1β-induced expression of LCN2, IL6 and NOS2 [7]: maximum inhibitory activity
- concentration of inhibitory activity on IL1β-induced mRNA expression [7]: 10 µM

SMILES: COc1ccc2c(c1)c(CC(=O)O)c(C)n2C(=O)c1ccc(Cl)cc1 [Indomethacin, reference compound]
- NO production induced by LPS and IL1β [2]: did not suppress; also recorded: did not significantly inhibit

SMILES: CC(=O)OC(/C=C\C1CC=CC(=O)O1)CC(OC(C)=O)C(C)OC(C)=O (stereo not drawn) [Hyptolide]
- concentration of inhibitory activity on IL1β-induced mRNA expression [7]: 100 µM

SMILES: CC(=O)OC(/C=C\C1OC(=O)C=CC1OC(C)=O)CC(OC(C)=O)C(C)OC(C)=O (stereo not drawn) [Pectinolide E]
- concentration of inhibitory activity on IL1β-induced mRNA expression [7]: 50 µM
